These results are taken from US9211278B2, “Composition containing arylnaphthalene lignan derivative for preventing and/or treating dementia” (KOREA INSTITUTE OF SCIENCE AND TECHNOLOGY, priority 2012, dated 2015).

The structures appear in SMILES notation.

In assay [1] the test system is beta-amyloid (Aβ40, Aβ42) formation. Briefly: Beta-amyloid (Aβ40, Aβ42) formation, ELISA, in APP-transfected HeLa cells. The format is cell-based, human. The conditions noted are these: for inhibition at 1 µM / inhibition at 5 µg/mL: Homo sapiens, HeLa, read-out: inhibitory effect on the beta-amyloid; for inhibition at 5 µg/mL: 5 μg/ml; for inhibition of beta-amyloid (Aβ40, Aβ42) formation: HeLa-APP cells, various concentrations (FIGS. 1, 2, 6). The protocol:
To test the inhibitory effect of Justicidin A (C1) obtained in Example 2 on the beta-amyloid formation, HeLa cell line transfected with the amyloid precursor protein (APP) driven from human was cultured in DMEM solution (Cat. #11995, Gibco, USA) for use. The cell line was received from Prof. Tae-Wan Kim at Department of Pathology, Columbia University Medical Center, New York, N.Y. 10032, USA.
Specifically, the Justicidin A of Example 2 was added into the cell line culture at the amount indicated in FIG. 1, and then the produced amount of be-amyloid (Aβ40, Aβ42 was measured. Human β-Amyloid[1-40](Aβ40), Human β-Amyloid [1-42](Aβ42) Colorimetric ELISA kit (#KHB3482 and #KHB3442; BioSource International, Inc., U.S.A.) were used to quantify two types of beta-amyloid (Aβ40, Aβ42).
The 5-methoxyJusticidin A (C2) of Example 2 was added into the cell line culture at the amount indicated in FIG. 2, and then the produced amount of be-amyloid was measured according to the method of Example 1.1. The group which was not treated with 5-methoxyjusticidin A was used as a negative control.
The compounds were used at the amount of FIG. 6, and measured for the beta-amyloid (Aβ40, Aβ42) formation according to the same method of Experimental Example <1-1>. The group treated with Justicidin A(C1) was a positive control and the group with no treatment was a negative control.
Background: An ELISA detects its analyte on a solid surface through an enzyme-linked reagent.

In assay [2] the test system is alpha-secretase product (sAPPα). Briefly: Alpha-secretase product (sAPPα) production, Western blotting. The format is cell-based, human. To be noted: 8 hours, concentrations of FIG. 5. As for the experimental part: The test result confirmed that Justicidin A (C1) obtained in Example 2 and 5-methoxyJusticidin A increased alpha-secretase product (sAPPα). Specifically, the produced amount of sAPPα was measured by treating the cultured cell line (the HeLa cell line transfected with the amyloid precursor protein (APP) driven from human) with Justicidin A (S62-C1) or 5-methoxyJusticitdin A (S62-C2) at a concentration of FIG. 5, culturing it for 8 hours, and measuring the produced amount of sAPPα according to the Western blotting. The negative control was the group with no treatment of Justicidin A or 5-methoxyJusticidin A.
On the technique in general: Immunoblotting shows a protein as a band on a membrane.

Take `COc1c2c(c(-c3ccc4c(c3)OCO4)c3cc4c(cc13)OCO4)C(=O)OC2` [Justicidin F, reference compound]: in assay [1], the inhibition at 1 µM was about 20%. On the same count and under the same terms, the figure for `COc1c2c(c(-c3ccc4c(c3)OCO4)c3cc4c(cc13)OCO4)COC2=O` [Justicidin D, reference compound] is about 20%.

For the compound `COc1ccc(-c2c3c(c(O)c4cc5c(cc24)OCO5)COC3=O)cc1OC` [Chinensinaphthol], in assay [1], the inhibition at 5 µg/mL was about 50%. `COc1cc2c(-c3ccc4c(c3)OCO4)c3c(c(OC)c2c(OC)c1OC)COC3=O` [5-methoxyJusticidin A]: the “inhibition of beta-amyloid (Aβ40, Aβ42) formation” value (from here on “inhibition of beta-amyloid”) in assay [1] was “inhibited the beta-amyloid (Aβ40, Aβ42) formation at a concentration-dependent manner”. In assay [2], the “formation of alpha-secretase product (sAPPα)” value is recorded as “activated the formation of alpha-secretase product (sAPPα)”.

Regarding `COc1c2c(cc3c(-c4ccc5c(c4)OCO5)c4c(cc13)C(=O)OC4)OCO2` [Justicidin G, reference compound], the inhibition at 1 µM in assay [1] is about 20%. In the case of `COc1ccc(-c2c3c(c(OC)c4cc5c(cc24)OCO5)C(=O)OC3)cc1OC` [retrochinensinaphthol methyether, Retrochinensinaphthol methylether], the “inhibition of beta-amyloid” value in assay [1] is reported as “did not show nearly the inhibition”. In the case of `COc1ccc(CC2COC(=O)/C2=C/c2ccc3c(c2)OCO3)cc1OC` (stereo not drawn) [succilactone], in assay [1], the “inhibition of beta-amyloid” value is “did not show nearly the inhibition” and the inhibition at 5 µg/mL was about 10%.
